{"source": "patent US12351595B2", "about": "“Composition comprising O-cyclic phytosphingosine-1-phosphate for preventing or treating Parkinson's disease” (AXCESO BIOPHARMA CO., LTD., priority 2019, dated 2025)", "key": {"SH-SY5Y nerve cells": {"test_system": "SH-SY5Y nerve cells", "assay": "Rotenone-treated Parkinson's disease cell model, necrotic cell death (LDH detection kit)", "assay_type": "cell-based, human", "method": "Rotenone is a substance widely used in cell models to induce Parkinson's disease. It is well known that when a nerve cell is treated with rotenone, mitochondrial function is destroyed, and oxidative stress is induced to cause death of the nerve cell.\nThe SH-SY5Y nerve cell culture medium was treated with cP1P drug at concentrations of 100 nM and 1000 nM, respectively, and cultured for 24 hours. Then, rotenone (Sigma) was dissolved in DMSO, diluted to a final concentration of 2 μM, and added to the SH-SY5Y nerve cell culture medium. The SH-SY5Y nerve cells were cultured for an additional 24 hours. SH-SY5Y nerve cells were obtained and cultured in the same manner as in Example 1.\nNecrotic cell death was measured for the cultured SH-SY5Y nerve cells using a lactate dehydrogenase (LDH) detection kit (BioVision).\nFor comparison, the necrotic cell death was also measured for the control group that was treated only with DMSO without cP1P drug and rotenone, and the control group that was treated only with diluted rotenone solution without cP1P drug. In addition, the necrotic cell death was measured for the treatment of the nerve cells with the cP1P drug at concentrations of 100 nM and 1000 nM, respectively."}, "[1]": {"test_system": "SH-SY5Y human nerve cell line", "assay": "Proliferation of SH-SY5Y human nerve cells (MTT assay)", "assay_type": "cell-based", "conditions": "48 hours", "method": "The SH-SY5Y human nerve cell line purchased from ATCC was used as a nerve cell line to evaluate the effect of the cP1P drug on the proliferation of dopaminergic human nerve cells. Dulbeco's Modified Eagle's Media/high glucose (with 10% FBS, 0.5% P/S) was used as a medium for culturing nerve cells, and the nerve cells were cultured at 37° C. in 5% CO2 incubator.\nIn order to observe the effect of cP1P drug on the proliferation of the dopaminergic human nerve cells, SH-SY5Y cells were treated with cP1P drug at concentrations of 10 nM, 100 nM and 1000 nM, respectively, and cultured for 48 hours. MTT assay (Molecular Probes) was performed according to the manufacturer's method to measure the cell proliferation rate."}, "SH-SY5Y cells": {"test_system": "SH-SY5Y cells", "assay": "MPP+-treated Parkinson's disease cell model, cell survival (MTT assay)", "assay_type": "cell-based, human", "method": "To prepare a Parkinson's disease cell model by inducing oxidative stress with MPP^+ (1-methyl-4-phenylpyridinium iodide, Sigma), MPP^+ was dissolved in a phosphate buffer solution, diluted to a final concentration of 3 mM, and added to a nerve cell culture medium. To confirm the efficacy of the cP1P drug in the MPP^+ environment, SH-SY5Y cells were pretreated with cP1P drug at concentrations of 10 nM, 100 nM, and 1000 nM, respectively, for 1 hour, and then exposed to oxidative stress by treatment with 3 mM MPP^+ for 24 hours. The efficacy of the cP1P drug on the survival of SH-SY5Y cells after 24 hours of exposure to oxidative stress was determined by MTT assay."}, "[2]": {"test_system": "Tyrosine hydroxylase (TH)", "assay": "Tyrosine hydroxylase (TH) expression in SH-SY5Y nerve cells (immunohistochemistry and western blot)", "assay_type": "cell-based, human", "conditions": "24 hours", "method": "Tyrosine hydroxylase (TH) is an enzyme that converts amino acid tyrosine into L-DOPA, a precursor of dopamine, and plays an important role in the formation of dopamine in nerve cells.\nIn order to confirm the efficacy of the cP1P drug on TH expression in SH-SY5Y nerve cells, SH-SY5Y nerve cell culture was treated with the cP1P drug at concentrations of 10 nM and 100 nM, respectively. TH expression was determined by immunohistochemistry and western blot after 24 hours."}}, "data": [{"smiles": "C=C(C)[C@H]1Cc2c(ccc3c2O[C@@H]2COc4cc(OC)c(OC)cc4[C@@H]2C3=O)O1", "note": "[rotenone, reference compound]", "values": [{"measurement": "degree of nerve cell death", "setting": "SH-SY5Y nerve cells; rotenone 2 μM only, 24 hours", "value": "exceed 30%"}]}, {"smiles": "CCCCCCCCCCCCCC[C@@H](O)[C@H]1OP(=O)(O)OC[C@@H]1N", "note": "[cP1P, O-cyclic phytosphingosine-1-phosphate]", "values": [{"measurement": "effect on the proliferation of SH-SY5Y cells", "setting": "[1]; 10 nM", "value": "effect on the proliferation of SH-SY5Y cells appeared"}, {"measurement": "effect on the nerve cell proliferation", "setting": "[1]; 100 nM (of 10, 100, 1000 nM)", "value": "highest"}, {"measurement": "nerve cell death", "setting": "SH-SY5Y cells; cP1P 100 nM pretreatment 1 hour, then 3 mM MPP+ 24 hours", "value": "significantly reduced"}, {"measurement": "nerve cell death", "setting": "SH-SY5Y cells; cP1P pretreatment (10, 100, 1000 nM) 1 hour, then 3 mM MPP+ 24 hours", "value": "significantly reduced"}, {"measurement": "degree of cell death", "setting": "SH-SY5Y nerve cells; cP1P 100 nM and 1000 nM alone, without rotenone", "value": "reduced the degree of cell death compared to the control group treated only with DMSO"}, {"measurement": "nerve cell death", "setting": "SH-SY5Y nerve cells; cP1P 100 nM and 1000 nM for 24 hours, then rotenone 2 μM for 24 hours", "value": "inhibited to the level equivalent to that of DMSO treatment without rotenone"}, {"measurement": "expression of the TH enzyme", "setting": "[2]; 10 nM", "value": "increased"}, {"measurement": "expression of the TH enzyme", "setting": "[2]; 100 nM", "value": "increased"}]}, {"smiles": "C[n+]1ccc(-c2ccccc2)cc1.[I-]", "note": "[MPP^+, 1-methyl-4-phenylpyridinium iodide, reference compound]", "values": [{"measurement": "nerve cell death", "setting": "SH-SY5Y cells; MPP+ 3 mM only, 24 hours", "value": "the nerve cells were killed"}]}]}
